PubChem BioAssay (NCI)
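Grown in 96-well plates, cells were treated for 48 hours with each compound at five concentrations. Insufficient inhibition: endpoint recorded as highest concentration tested. The concentration for 50% growth inhibition is given as GI50. TGI is the concentration that stops growth completely.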

Tests used:
Assay in all cases: NCI tumour cell line growth inhibition, 48 h
786-0 renal = system: 786-0 renal
SK-MEL-2 melanoma = system: SK-MEL-2 melanoma
OVCAR-8 ovarian = system: OVCAR-8 ovarian
UO-31 renal = system: UO-31 renal
OVCAR-3 ovarian = system: OVCAR-3 ovarian
A498 renal = system: A498 renal
SN12C renal = system: SN12C renal
SK-MEL-5 melanoma = system: SK-MEL-5 melanoma
HOP-62 NSCLC = system: HOP-62 NSCLC
ACHN renal = system: ACHN renal
HS 578T breast = system: HS 578T breast
MDA-MB-231 breast = system: MDA-MB-231 breast
PC-3 prostate = system: PC-3 prostate
HCT-15 colon = system: HCT-15 colon
HT29 colon = system: HT29 colon
COLO 205 colon = system: COLO 205 colon
DU-145 prostate = system: DU-145 prostate
EKVX NSCLC = system: EKVX NSCLC
SR leukemia = system: SR leukemia
TK-10 renal = system: TK-10 renal
MALME-3M melanoma = system: MALME-3M melanoma
NCI/ADR-RES ovarian = system: NCI/ADR-RES ovarian
RXF 393 renal = system: RXF 393 renal
A549 NSCLC = system: A549 NSCLC
MOLT-4 leukemia = system: MOLT-4 leukemia
SK-MEL-28 melanoma = system: SK-MEL-28 melanoma
CAKI-1 renal = system: CAKI-1 renal
NCI-H23 lung = system: NCI-H23 lung
KM12 colon = system: KM12 colon
NCI-H460 lung = system: NCI-H460 lung
T-47D breast = system: T-47D breast
SF-268 CNS = system: SF-268 CNS
UACC-62 melanoma = system: UACC-62 melanoma
OVCAR-4 ovarian = system: OVCAR-4 ovarian
HCT-116 colon = system: HCT-116 colon
NCI-H522 lung = system: NCI-H522 lung
HCC-2998 colon = system: HCC-2998 colon
IGROV1 ovarian = system: IGROV1 ovarian
HL-60(TB) leukemia = system: HL-60(TB) leukemia
SF-295 CNS = system: SF-295 CNS
NCI-H226 lung = system: NCI-H226 lung
MDA-MB-435 = system: MDA-MB-435
BT-549 breast = system: BT-549 breast
CCRF-CEM leukemia = system: CCRF-CEM leukemia
HOP-92 NSCLC = system: HOP-92 NSCLC
SNB-19 CNS = system: SNB-19 CNS
SK-OV-3 ovarian = system: SK-OV-3 ovarian
UACC-257 melanoma = system: UACC-257 melanoma
SF-539 CNS = system: SF-539 CNS
U251 CNS = system: U251 CNS
MCF7 breast = system: MCF7 breast
OVCAR-5 ovarian = system: OVCAR-5 ovarian
RPMI-8226 leukemia = system: RPMI-8226 leukemia
K-562 leukemia = system: K-562 leukemia
M14 melanoma = system: M14 melanoma
LOX IMVI melanoma = system: LOX IMVI melanoma
SW-620 colon = system: SW-620 colon
SNB-75 CNS = system: SNB-75 CNS

## CCOC(=O)/C(C#N)=C(/NS(=O)(=O)c1cc(C)c(Cl)cc1[S-])[n+]1ccc(N(C)C)cc1
786-0 renal
  TGI: > 100 µM
SK-MEL-2 melanoma
  TGI: > 100 µM
OVCAR-8 ovarian
  TGI: > 100 µM
UO-31 renal
  TGI: > 100 µM
OVCAR-3 ovarian
  TGI: > 100 µM
A498 renal
  TGI: > 100 µM
SN12C renal
  TGI: > 100 µM
SK-MEL-5 melanoma
  TGI: > 100 µM
HOP-62 NSCLC
  TGI: > 100 µM
ACHN renal
  TGI: > 100 µM
HS 578T breast
  TGI: > 100 µM
MDA-MB-231 breast
  TGI: > 100 µM
PC-3 prostate
  TGI: > 100 µM
HCT-15 colon
  TGI: > 100 µM
HT29 colon
  TGI: > 100 µM
COLO 205 colon
  TGI: > 100 µM
DU-145 prostate
  TGI: > 100 µM
EKVX NSCLC
  TGI: > 100 µM
SR leukemia
  TGI: > 100 µM
TK-10 renal
  TGI: > 100 µM
MALME-3M melanoma
  TGI: > 100 µM
NCI/ADR-RES ovarian
  TGI: > 100 µM
RXF 393 renal
  TGI: > 100 µM
A549 NSCLC
  TGI: > 100 µM
MOLT-4 leukemia
  TGI: > 100 µM
SK-MEL-28 melanoma
  TGI: > 100 µM
CAKI-1 renal
  TGI: > 100 µM
NCI-H23 lung
  TGI: > 100 µM
KM12 colon
  TGI: > 100 µM
NCI-H460 lung
  TGI: > 100 µM
T-47D breast
  TGI: > 100 µM
SF-268 CNS
  TGI: > 100 µM
UACC-62 melanoma
  TGI: > 100 µM
OVCAR-4 ovarian
  TGI: > 100 µM
HCT-116 colon
  TGI: > 100 µM
NCI-H522 lung
  TGI: > 100 µM
HCC-2998 colon
  TGI: > 100 µM
IGROV1 ovarian
  TGI: > 100 µM
HL-60(TB) leukemia
  TGI: > 100 µM
SF-295 CNS
  TGI: > 100 µM
NCI-H226 lung
  TGI: > 100 µM
MDA-MB-435
  TGI: > 100 µM
BT-549 breast
  TGI: > 100 µM
CCRF-CEM leukemia
  TGI: > 100 µM
HOP-92 NSCLC
  TGI: 91.7 µM
SNB-19 CNS
  TGI: > 100 µM
SK-OV-3 ovarian
  TGI: > 100 µM
UACC-257 melanoma
  TGI: > 100 µM
SF-539 CNS
  TGI: > 100 µM
U251 CNS
  TGI: > 100 µM
MCF7 breast
  TGI: > 100 µM
OVCAR-5 ovarian
  TGI: > 100 µM
RPMI-8226 leukemia
  TGI: > 100 µM
K-562 leukemia
  TGI: > 100 µM
M14 melanoma
  TGI: > 100 µM

## COC(=O)[C@H](CCSC)NC(=O)c1ccc(CNC(=O)/C=C/c2cccc(Oc3ccccc3)c2)cc1
786-0 renal
  TGI: > 100 µM
SK-MEL-2 melanoma
  TGI: 32.8 µM
OVCAR-8 ovarian
  TGI: > 100 µM
UO-31 renal
  TGI: > 100 µM
OVCAR-3 ovarian
  TGI: > 93.6 µM
A498 renal
  TGI: 48.3 µM
SN12C renal
  TGI: > 100 µM
SK-MEL-5 melanoma
  TGI: 34.5 µM
HOP-62 NSCLC
  TGI: > 100 µM
ACHN renal
  TGI: > 100 µM
HS 578T breast
  TGI: > 100 µM
MDA-MB-231 breast
  TGI: > 83.5 µM
PC-3 prostate
  TGI: > 100 µM
HCT-15 colon
  TGI: > 100 µM
HT29 colon
  TGI: > 100 µM
COLO 205 colon
  TGI: 50.5 µM
DU-145 prostate
  TGI: > 100 µM
EKVX NSCLC
  TGI: > 100 µM
LOX IMVI melanoma
  TGI: > 100 µM
SR leukemia
  TGI: > 100 µM
TK-10 renal
  TGI: > 87 µM
MALME-3M melanoma
  TGI: 37.8 µM
NCI/ADR-RES ovarian
  TGI: > 100 µM
RXF 393 renal
  TGI: 55.4 µM
A549 NSCLC
  TGI: > 100 µM
MOLT-4 leukemia
  TGI: 33.4 µM
SK-MEL-28 melanoma
  TGI: 34.2 µM
CAKI-1 renal
  TGI: > 80.3 µM
NCI-H23 lung
  TGI: > 92.1 µM
KM12 colon
  TGI: > 100 µM
NCI-H460 lung
  TGI: > 100 µM
T-47D breast
  TGI: 27 µM
SF-268 CNS
  TGI: > 100 µM
UACC-62 melanoma
  TGI: 38.2 µM
OVCAR-4 ovarian
  TGI: > 90.6 µM
HCT-116 colon
  TGI: > 100 µM
NCI-H522 lung
  TGI: > 100 µM
HCC-2998 colon
  TGI: > 84 µM
IGROV1 ovarian
  TGI: > 73.2 µM
SW-620 colon
  TGI: > 100 µM
SF-295 CNS
  TGI: > 100 µM
NCI-H226 lung
  TGI: > 62.9 µM
MDA-MB-435
  TGI: 32.9 µM
BT-549 breast
  TGI: > 100 µM
CCRF-CEM leukemia
  TGI: > 100 µM
HOP-92 NSCLC
  TGI: 28.1 µM
SNB-19 CNS
  TGI: > 100 µM
SK-OV-3 ovarian
  TGI: > 100 µM
UACC-257 melanoma
  TGI: 26.9 µM
SNB-75 CNS
  TGI: > 100 µM
SF-539 CNS
  TGI: > 100 µM
U251 CNS
  TGI: > 100 µM
MCF7 breast
  TGI: > 100 µM
OVCAR-5 ovarian
  TGI: > 100 µM
RPMI-8226 leukemia
  TGI: > 100 µM
K-562 leukemia
  TGI: > 78.8 µM
M14 melanoma
  TGI: 26.8 µM

## O=c1ncc(-c2ccc(C(F)(F)F)cc2)c(NC2CCCCCC2)[nH]1
786-0 renal
  GI50: 23.6 µM
  TGI: 52.4 µM
OVCAR-8 ovarian
  GI50: 18.7 µM
  TGI: 40.4 µM
UO-31 renal
  GI50: 14.2 µM
  TGI: 38.9 µM
OVCAR-3 ovarian
  GI50: 17.2 µM
  TGI: 34.6 µM
A498 renal
  GI50: 16.1 µM
  TGI: 34 µM
SN12C renal
  GI50: 16.2 µM
  TGI: 33 µM
SK-MEL-5 melanoma
  GI50: 16.6 µM
  TGI: 30.6 µM
HOP-62 NSCLC
  GI50: 20.3 µM
  TGI: 36.8 µM
ACHN renal
  GI50: 30.9 µM
  TGI: > 100 µM
HS 578T breast
  GI50: 17.9 µM
  TGI: 53.9 µM
MDA-MB-231 breast
  GI50: 16.6 µM
  TGI: 38.1 µM
PC-3 prostate
  GI50: 19 µM
  TGI: 54.9 µM
HCT-15 colon
  GI50: 22.1 µM
  TGI: 64.6 µM
HT29 colon
  GI50: 21.5 µM
  TGI: 39 µM
COLO 205 colon
  GI50: 19.6 µM
  TGI: 34.7 µM
DU-145 prostate
  GI50: 31.6 µM
  TGI: 98.1 µM
SR leukemia
  GI50: 16.3 µM
  TGI: 38.3 µM
TK-10 renal
  GI50: 35.7 µM
  TGI: 73.9 µM
MALME-3M melanoma
  GI50: 17.2 µM
  TGI: 33.7 µM
NCI/ADR-RES ovarian
  GI50: 25.2 µM
  TGI: 68.2 µM
RXF 393 renal
  GI50: 15.8 µM
  TGI: 31.8 µM
A549 NSCLC
  GI50: 25.5 µM
  TGI: > 100 µM
MOLT-4 leukemia
  GI50: 17.9 µM
  TGI: 43.1 µM
SK-MEL-28 melanoma
  GI50: 17 µM
  TGI: 33.9 µM
CAKI-1 renal
  GI50: 18.7 µM
  TGI: 48.4 µM
NCI-H23 lung
  GI50: 29.4 µM
  TGI: 90.9 µM
KM12 colon
  GI50: 19.9 µM
  TGI: 44.3 µM
NCI-H460 lung
  GI50: 17.7 µM
  TGI: 35 µM
T-47D breast
  GI50: 17.2 µM
  TGI: 57.8 µM
SF-268 CNS
  GI50: 18.4 µM
  TGI: 36.5 µM
UACC-62 melanoma
  GI50: 13.8 µM
  TGI: 29.3 µM
OVCAR-4 ovarian
  GI50: 21.3 µM
  TGI: 77.5 µM
HCT-116 colon
  GI50: 16.8 µM
  TGI: 33.6 µM
NCI-H522 lung
  GI50: 19.7 µM
  TGI: 44.4 µM
HCC-2998 colon
  GI50: 20 µM
  TGI: 35.9 µM
IGROV1 ovarian
  GI50: 19.1 µM
  TGI: 40.2 µM
HL-60(TB) leukemia
  GI50: 21 µM
  TGI: 46.4 µM
SW-620 colon
  GI50: 23.9 µM
  TGI: 68.7 µM
SF-295 CNS
  GI50: 17 µM
  TGI: 34 µM
NCI-H226 lung
  GI50: 19.4 µM
  TGI: 46 µM
MDA-MB-435
  GI50: 15.6 µM
  TGI: 34.4 µM
BT-549 breast
  GI50: 19.5 µM
  TGI: 39 µM
CCRF-CEM leukemia
  GI50: 19.7 µM
  TGI: 48 µM
SNB-19 CNS
  GI50: 24.2 µM
  TGI: 80.8 µM
SK-OV-3 ovarian
  GI50: 27.3 µM
  TGI: 64.3 µM
UACC-257 melanoma
  GI50: 23.1 µM
  TGI: 57.6 µM
SNB-75 CNS
  GI50: 13.7 µM
  TGI: 33.4 µM
SF-539 CNS
  GI50: 15.2 µM
  TGI: 30.1 µM
MCF7 breast
  GI50: 16.2 µM
  TGI: 56.4 µM
OVCAR-5 ovarian
  GI50: 22.9 µM
  TGI: 48.3 µM
RPMI-8226 leukemia
  GI50: 15.8 µM
  TGI: 39.6 µM
K-562 leukemia
  GI50: 24.2 µM
  TGI: 60.1 µM
M14 melanoma
  GI50: 20.4 µM
  TGI: 45.8 µM
